Laboratory results from ChEMBL document CHEMBL4765274, “The development of advanced structural framework as multi-target-directed ligands for the treatment of Alzheimer's disease” (Eur J Med Chem, 2020).
The source made the active and inactive calls. The calls are words filed in the database; no cut-off is given here.

Assays:
[1] = tested on: Mus musculus; assay: Antialzheimer activity in scopolamine-induced Kunming mouse model of memory impairment assessed as total reads in brain hippocampus at 5 mg/kg , po by illumina sequencing method (reference value: 100%); assay type: functional
[2] = Toxicity in 2 dpf zebra fish assessed as bradycardia at 25 ug/ml after 3 days relative to control; set-up: species or system Danio rerio; conditions: zebrafish, 72 h, at 25 µg/mL, time 3 day
[3] = tested on: PC-12; assay: Neuroprotective activity against H2O2-induced cytotoxicity in rat PC-12 cells assessed as decrease in LDH activity at 1 to 10 uM preincubated for 2 hrs followed by H2O2 addition and measured after 24 hrs by LDH assay; assay type: functional, cell-based; conditions: dose 1-10 µM, time 26.0 hrs
[4] = Toxicity in 3 dpf zebra fish assessed as mortality at 1.56 ug/ml (reference value: 0%); set-up: species or system Danio rerio; conditions: zebrafish, at 1.56 µg/mL, read-out: Activity
[5] = Toxicity in 2 dpf zebra fish assessed as yolk sac absorption delay at 8.33 ug/ml after 3 days relative to control; set-up: species or system Danio rerio; conditions: zebrafish, 72 h, at 8.33 µg/mL, time 3 day
[6] = tested on: HT-22; assay: Activation of ubiquitin-proteasome system in mouse HT-22 cells expressing pEGFP-N1-APP assessed as increase in APP degradation by measuring reduction in GFP level at 2.5 to 20 uM after 24 hrs by Western blot analysis; assay type: cell-based; conditions: filed as activator, dose 2.5-20 µM
[7] = Drug metabolism in mouse urine assessed as metabolite formation by UPLC-TOF analysis; assay type: ADME
[8] = Disaggregation of Cu2+ induced amyloid beta (1 to 42 residues) (unknown origin) aggregation at 25 uM by thioflavin-T fluorescence method relative to control
[9] = target: Cholinesterase (Equus caballus, UniProt P81908); assay: Inhibition of equine serum BChE by Ellman's method; assay type: cell-free
Chain of Cholinesterase (P81908 whole entry): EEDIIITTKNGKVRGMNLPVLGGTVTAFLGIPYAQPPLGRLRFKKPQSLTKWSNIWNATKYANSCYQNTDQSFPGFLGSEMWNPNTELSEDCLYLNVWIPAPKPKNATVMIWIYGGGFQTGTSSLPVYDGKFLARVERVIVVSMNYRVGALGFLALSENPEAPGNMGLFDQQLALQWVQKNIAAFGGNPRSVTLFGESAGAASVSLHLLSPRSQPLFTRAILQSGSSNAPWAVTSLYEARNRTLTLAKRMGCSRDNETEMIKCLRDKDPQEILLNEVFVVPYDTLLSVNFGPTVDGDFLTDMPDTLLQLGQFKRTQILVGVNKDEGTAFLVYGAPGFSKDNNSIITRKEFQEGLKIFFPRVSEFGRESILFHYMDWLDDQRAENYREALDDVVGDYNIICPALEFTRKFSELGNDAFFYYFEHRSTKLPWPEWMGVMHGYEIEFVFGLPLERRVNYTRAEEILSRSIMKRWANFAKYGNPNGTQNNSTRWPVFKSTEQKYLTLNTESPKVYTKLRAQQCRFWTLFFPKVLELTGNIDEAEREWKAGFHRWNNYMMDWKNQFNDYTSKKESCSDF

[10] = Toxicity in 3 dpf zebra fish assessed as mortality at 0.78 ug/ml (reference value: 0%); set-up: species or system Danio rerio; conditions: zebrafish, at 0.78 µg/mL, read-out: Activity
[11] = tested on: Mus musculus; assay: Antialzheimer activity in scopolamine-induced Kunming mouse model of memory impairment assessed as latency time at 20 mg/kg , po by step-down passive avoidance test (reference value: 125.65 sec); assay type: functional
[12] = tested on: Mus musculus; assay: Antialzheimer activity in scopolamine-induced Kunming mouse model of memory impairment assessed as uniquely mapped in brain hippocampus at 5 mg/kg , po by illumina sequencing method (reference value: 94.54%); assay type: functional
[13] = Toxicity in 3 dpf zebra fish assessed as mortality at 3.125 ug/ml (reference value: 0%); set-up: species or system Danio rerio; conditions: zebrafish, at 3.125 µg/mL, read-out: Activity
[14] = Metal chelating activity assessed as Fe2+-compound complex formation in water at 37.5 uM by UV-Visible spectra analysis
[15] = organism: Homo sapiens; assay: Binding affinity to amyloid beta (1 to 42 residues) (unknown origin) assessed as dissociation rate constant by biolayer interferometry analysis
[16] = Toxicity in 2 dpf zebra fish assessed as slow blood flow at 25 ug/ml after 3 days relative to control; assay type: tissue-based, Danio rerio; conditions: zebrafish, 72 h, at 25 µg/mL, time 3 day
[17] = tested on: HT-22; assay: Activation of ubiquitin-proteasome system in mouse HT-22 cells expressing YFP-CLI assessed as reduction in GFP level at 10 uM after 24 hrs by fluorescence microscopic method; assay type: cell-based; conditions: filed as activator
[18] = organism: Danio rerio; assay: Antialzheimer activity in Alcl3-induced zebra fish AD model assessed as increase dyskinesia recovery rate; assay type: functional, organism-based
[19] = Antioxidant activity assessed as trolox equivalent of AAPH radical scavenging activity measured every min for 4 hrs by ORAC-FL assay relative to trolox; assay type: functional
[20] = tested on: HT-22; assay: Activation of ubiquitin-proteasome system in mouse HT-22 cells expressing pRK5-GFP-Tau assessed as increase in tau degradation by measuring reduction in GFP level at 2.5 to 20 uM after 24 hrs by Western blot analysis; assay type: cell-based; conditions: filed as activator, dose 2.5-20 µM
[21] = Drug metabolism in mouse feces assessed as metabolite formation by UPLC-TOF analysis; assay type: ADME
[22] = Toxicity in 2 dpf zebra fish assessed as absent blood flow at 8.33 ug/ml after 3 days relative to control; assay type: tissue-based, Danio rerio; conditions: zebrafish, 72 h, at 8.33 µg/mL, time 3 day
[23] = Selectivity index, ratio of IC50 for inhibition of equine serum BChE to IC50 for inhibition of electric eel AChE
[24] = tested on: HT-22; assay: Activation of ubiquitin-proteasome system in mouse HT-22 cells expressing pRK5-GFP-Tau P301L mutant assessed as increase in tau degradation by measuring reduction in GFP level after 24 hrs by fluorescence microscopic method; assay type: cell-based; conditions: filed as activator, dose 2.5-20 µM
[25] = Effect on GFP expression in mouse HT-22 cells expressing pEGFP-N1 at 10 uM after 24 hrs by fluorescence microscopic method; assay type: ADME, cell-based; conditions: ht-22, 24 h
[26] = Toxicity in 3 dpf zebra fish assessed as blood flow retardation at 1.56 ug/ml; assay type: tissue-based, Danio rerio; conditions: zebrafish, dose 1.56 µg/ml
[27] = target: Acetylcholinesterase (Homo sapiens, UniProt P22303); assay: Reversible inhibition of human AChE assessed as residual activity at 0.1 times of IC50 concentration after 120 mins relative to control
Chain of Acetylcholinesterase (Homo sapiens, UniProt P22303) (P22303 whole entry, the tested form may be a part): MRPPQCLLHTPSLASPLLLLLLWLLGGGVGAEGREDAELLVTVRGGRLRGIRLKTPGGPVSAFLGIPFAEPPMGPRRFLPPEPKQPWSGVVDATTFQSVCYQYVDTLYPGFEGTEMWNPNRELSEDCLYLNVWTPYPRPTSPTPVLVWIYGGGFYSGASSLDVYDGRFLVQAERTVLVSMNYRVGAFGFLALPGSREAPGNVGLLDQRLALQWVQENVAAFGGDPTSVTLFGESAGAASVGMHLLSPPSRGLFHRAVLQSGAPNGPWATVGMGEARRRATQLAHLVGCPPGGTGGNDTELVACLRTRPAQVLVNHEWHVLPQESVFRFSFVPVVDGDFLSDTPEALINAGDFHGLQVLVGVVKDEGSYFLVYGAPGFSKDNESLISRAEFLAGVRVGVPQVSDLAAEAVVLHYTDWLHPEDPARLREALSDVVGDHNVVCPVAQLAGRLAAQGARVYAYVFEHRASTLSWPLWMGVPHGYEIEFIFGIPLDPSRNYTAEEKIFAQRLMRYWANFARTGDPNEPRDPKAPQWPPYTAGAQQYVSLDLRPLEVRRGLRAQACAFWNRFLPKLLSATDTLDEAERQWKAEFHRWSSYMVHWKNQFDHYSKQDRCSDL

[28] = organism: Danio rerio; assay: Antialzheimer activity in amyloid beta (1 to 40 residues)-induced zebra fish AD model assessed as reduction in vascular injury at 0.78 ug/ml relative to control; assay type: functional; set-up: scale not given: the % may be the effect or the level left; conditions: dose 0.78 µg/ml
[29] = Disaggregation of Cu2+ induced amyloid beta (unknown origin) aggregation after 48 hrs by TEM analysis
[30] = Toxicity in 2 dpf zebra fish assessed as yolk sac absorption delay at 25 ug/ml after 3 days relative to control; set-up: species or system Danio rerio; conditions: zebrafish, 72 h, at 25 µg/mL, time 3 day
[31] = tested on: HT-22; assay: Activation of ubiquitin-proteasome system in mouse HT-22 cells expressing pRK5-GFP-Tau P301L mutant assessed as increase in tau degradation by measuring reduction in GFP level at 2.5 to 20 uM after 24 hrs by flow cytometric analysis; assay type: cell-based; conditions: filed as activator, dose 2.5-20 µM
[32] = Metal chelating activity assessed as Al3+-compound complex formation in water buffer at pH 7.4 at 37.5 uM by UV-Visible spectra analysis
[33] = target: Acetylcholinesterase (Electrophorus electricus, UniProt O42275); assay: Inhibition of electric eel AChE by Ellman's method
Chain of Acetylcholinesterase (Electrophorus electricus, UniProt O42275) (O42275 whole entry): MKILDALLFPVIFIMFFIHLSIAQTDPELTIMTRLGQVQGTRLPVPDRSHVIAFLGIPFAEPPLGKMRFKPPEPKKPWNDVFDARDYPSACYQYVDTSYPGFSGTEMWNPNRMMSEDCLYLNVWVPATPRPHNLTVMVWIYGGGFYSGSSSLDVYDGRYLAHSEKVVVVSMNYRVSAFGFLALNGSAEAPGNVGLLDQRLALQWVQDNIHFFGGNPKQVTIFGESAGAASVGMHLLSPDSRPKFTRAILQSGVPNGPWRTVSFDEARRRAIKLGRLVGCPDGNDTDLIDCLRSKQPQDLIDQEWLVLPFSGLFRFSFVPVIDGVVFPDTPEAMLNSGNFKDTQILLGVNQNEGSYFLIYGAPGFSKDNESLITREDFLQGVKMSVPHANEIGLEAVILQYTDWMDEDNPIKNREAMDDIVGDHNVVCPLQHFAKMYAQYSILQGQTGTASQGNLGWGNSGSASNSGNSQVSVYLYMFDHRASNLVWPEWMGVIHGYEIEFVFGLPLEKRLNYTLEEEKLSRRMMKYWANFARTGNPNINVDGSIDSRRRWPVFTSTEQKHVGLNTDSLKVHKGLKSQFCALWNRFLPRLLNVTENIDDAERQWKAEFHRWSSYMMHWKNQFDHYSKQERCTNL

[34] = Metal chelating activity assessed as Cu2+-compound complex formation in methanol at 37.5 uM by UV-Visible spectra analysis
[35] = Effective permeability of compound at 100 ug/m by PAMPA-BBB assay; assay type: ADME; conditions: read-out: Peff
[36] = Toxicity in 2 dpf zebra fish assessed as small brain at 25 ug/ml after 3 days relative to control; assay type: tissue-based, Danio rerio; conditions: zebrafish, 72 h, at 25 µg/mL, time 3 day
[37] = organism: Danio rerio; assay: Antialzheimer activity in Alcl3-induced zebra fish AD model assessed as increase dyskinesia recovery rate at 0.26 ug/ml relative to control; assay type: functional; conditions: dose 0.26 µg/ml
[38] = Drug metabolism in rat liver microsomes assessed as metabolite formation by UPLC-TOF analysis; assay type: ADME, Microsome
[39] = tested on: Mus musculus; assay: Antialzheimer activity in scopolamine-induced Kunming mouse model of memory impairment assessed as GC bases ratio (QC data) in brain hippocampus at 5 mg/kg , po by illumina sequencing method (reference value: 53.64%); assay type: functional
[40] = Toxicity in 3 dpf zebra fish assessed as mortality at 6.25 ug/ml (reference value: 0%); set-up: species or system Danio rerio; conditions: zebrafish, at 6.25 µg/mL, read-out: Activity

CCN(CCCCOc1ccc(-c2cc(=O)c3c(O)cc(OCCCCN(CC)Cc4ccccc4)cc3o2)cc1)Cc1ccccc1
Activity [1]: 100% | Activity [2]: 66.7% | Activity [3]: Active | mortality at 1.56 ug/ml [4]: 6.7% | Activity [5]: 73.3% | Activity [6]: Active | Drug metabolism [7]: Metabolite_Detected | Activity [8]: 81.3% | IC50 [9]: 9.6 µM | mortality at 0.78 ug/ml [10]: 0% | Time [11]: 245.98 s | Activity [12]: 94.34% | mortality at 3.125 ug/ml [13]: 100% | Activity [14]: inactive | Kdiss [15]: 2.56 10^-2/s | Activity [16]: 46.7% | Activity [17]: Active | Activity [18]: Dose-dependent effect | fold change (FC) [19]: 1.2 | Activity [20]: Active | Drug metabolism [21]: Metabolite_Detected | Activity [22]: 33.3% | Ratio IC50 [23]: 2.6 | Activity [24]: Dose-dependent effect | Activity [25]: Non-Toxic | Activity [26]: Toxic | Activity [27]: 86.6% | Activity [28]: 0% | Activity [29]: Active | Activity [30]: 100% | Activity [31]: Active | Activity [32]: inactive | IC50 [33]: 3.7 µM | Activity [34]: Active | Papp at 100 ug/m [35]: 1.68 ×10⁻⁶ cm/s | Activity [36]: 50% | Activity [37]: 80% | Drug metabolism [38]: Metabolite_Detected | Activity [39]: 59.05% | mortality at 6.25 ug/ml [40]: 100%
